This passage reports TGI and GI50 results from PubChem BioAssay (NCI).

Among the test systems are ACHN renal; EKVX NSCLC; HCT-116 colon; HCT-15 colon; IGROV1 ovarian; MCF7 breast; PC-3 prostate; SF-295 CNS; SK-MEL-5 melanoma; SF-268 CNS.
What all share (experiment): growth of human tumour cells (NCI), 48 h

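Growth conditions: 96-well plates. Treatment: test compound, 48 hours, 5 concentrations. Analysis: linear interpolation between bracketing concentrations; unreached endpoints set to highest concentration. Abbreviation: GI50, concentration required for 50% inhibition of growth. The concentration for full growth arrest is given as TGI.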

As for `COc1ccc(NC(C)=O)cc1N1C(=O)/C(=C\c2cc(OC)c(OC)c(OC)c2)SC1c1ccccc1` (stereo not given), the TGI in the test on ACHN renal, with EKVX NSCLC, in the test with HCT-116 colon, with HCT-15 colon, in the test on IGROV1 ovarian and with MCF7 breast was greater than 100 µM in each case. In addition, the TGI in the test with PC-3 prostate, in the test with SF-295 CNS and with SK-MEL-5 melanoma was greater than 100 µM in each case.
Regarding `COc1ccc(C2N(NC(=O)c3ccncc3)C(=O)CS2(=O)=O)cc1F` (stereo not given), the TGI with ACHN renal, in the test with HCT-116 colon, in the test with HCT-15 colon, in the test on SF-268 CNS, in the test with SF-295 CNS and in the test with SK-MEL-5 melanoma was greater than 100 µM in each case.
Turning to `COc1ccc(C(=O)Cc2ccc(Br)cc2)cc1OC`, the TGI in the test with ACHN renal, in the test on EKVX NSCLC, with HCT-116 colon, with HCT-15 colon, with IGROV1 ovarian and with SF-268 CNS was greater than 100 µM each time. The TGI with SF-295 CNS and in the test on SK-MEL-5 melanoma was greater than 100 µM in each case.
With `COc1ccc(C(=O)/C=C/c2c(Cl)c3c(c(OC)c2Cl)OCC(=O)N3)cc1`, the GI50 with ACHN renal is 1.79 µM; in the test with HCT-116 colon, 1.43 µM; in the test on HCT-15 colon, 2.01 µM; with IGROV1 ovarian, 3.28 µM; in the test on MCF7 breast it was 2.32 µM; with SF-295 CNS, 3.23 µM. Moreover, the TGI was 3.64 µM with ACHN renal; 2.87 µM in the test on HCT-116 colon; 6.14 µM in the test with HCT-15 colon; greater than 100 µM in the test with IGROV1 ovarian; greater than 100 µM with MCF7 breast; 32.7 µM in the test with SF-295 CNS.
For the compound `NNC(=O)Cn1c2ccc(Br)cc2c2nc3ccccc3nc21`, the TGI in the test on ACHN renal, with EKVX NSCLC, in the test with IGROV1 ovarian, in the test on MCF7 breast, in the test on PC-3 prostate and in the test with SF-268 CNS was greater than 100 µM in each case. The TGI in the test with SF-295 CNS and in the test on SK-MEL-5 melanoma was greater than 100 µM throughout.
Take `CSc1n[nH]c(N)c1C(=O)Nc1ccc(C)cc1`: the TGI with ACHN renal, in the test on EKVX NSCLC, in the test on HCT-116 colon, with HCT-15 colon, with MCF7 breast and in the test on PC-3 prostate was greater than 100 µM each time. Moreover, the TGI in the test on SF-268 CNS, in the test on SF-295 CNS and with SK-MEL-5 melanoma was greater than 100 µM throughout.
`COc1ccc(-c2cc(-c3ccc(Nc4ccnc5cc(Cl)ccc45)cc3)[nH]c(=O)c2C#N)c2ccccc12`: the TGI was greater than 100 µM with ACHN renal; greater than 100 µM with EKVX NSCLC; greater than 100 µM with HCT-15 colon; greater than 79.1 µM with IGROV1 ovarian; greater than 100 µM with PC-3 prostate; greater than 96.6 µM in the test with SF-268 CNS. Moreover, the TGI was greater than 50.1 µM with SF-295 CNS and greater than 63.4 µM in the test with SK-MEL-5 melanoma.
On to `CC(=O)Oc1c2oc3ccc(Cl)cc3c(=O)c2c(O)c2ccsc12`, for which the TGI with ACHN renal, with EKVX NSCLC, in the test on HCT-116 colon, in the test on HCT-15 colon, in the test on MCF7 breast and with PC-3 prostate was greater than 100 µM each time. Further, the TGI in the test with SF-268 CNS, in the test on SF-295 CNS and in the test with SK-MEL-5 melanoma was greater than 100 µM throughout.
As for `COc1cc2cc[n+]3c(C)c4cc(OC)c(OC)cc4c([O-])c3c2cc1OC`, the TGI in the test on ACHN renal was greater than 100 µM; in the test with EKVX NSCLC it was greater than 100 µM; in the test on HCT-116 colon, greater than 100 µM; in the test with HCT-15 colon it was greater than 100 µM; in the test on IGROV1 ovarian, 72.8 µM; in the test on SF-268 CNS, greater than 100 µM. For the same compound, the TGI in the test on SF-295 CNS and with SK-MEL-5 melanoma was greater than 100 µM throughout.
Take `Oc1c([Si](c2ccccc2)(c2ccccc2)c2ccccc2)cc2ccccc2c1-c1c(O)c([Si](c2ccccc2)(c2ccccc2)c2ccccc2)cc2ccccc12`: the TGI in the test with ACHN renal, with EKVX NSCLC, with HCT-15 colon, in the test with IGROV1 ovarian, in the test with MCF7 breast and with PC-3 prostate was greater than 100 µM in each case. Further, the TGI in the test with SF-268 CNS, in the test with SF-295 CNS and with SK-MEL-5 melanoma was greater than 100 µM each time.
Take `O=C(Nc1nc2ccccc2s1)c1cc([N+](=O)[O-])ccc1Cl`: the TGI was greater than 100 µM in the test with ACHN renal; greater than 100 µM in the test with EKVX NSCLC; greater than 100 µM in the test on HCT-116 colon; greater than 41.4 µM with HCT-15 colon; greater than 22.6 µM in the test with MCF7 breast; greater than 70.3 µM in the test with PC-3 prostate. Besides, the TGI with SF-268 CNS was 62 µM; in the test with SF-295 CNS, greater than 100 µM; in the test on SK-MEL-5 melanoma, 25.1 µM.
In the case of `CCOC(=O)c1cc2c3c(c(C(C)=O)c(O)c2[nH]1)N(CC(C)CC)CC3` (stereo not given), the TGI in the test on ACHN renal, with EKVX NSCLC, with HCT-116 colon, in the test with HCT-15 colon, with IGROV1 ovarian and in the test with MCF7 breast was greater than 100 µM each time. Also, the TGI with PC-3 prostate, with SF-268 CNS and in the test on SF-295 CNS was greater than 100 µM in each case.
For `CCOC(=O)C(NC(=O)CC)(Nc1cc(C)on1)C(F)(F)F` (stereo not given), the TGI in the test on ACHN renal, in the test on EKVX NSCLC, with HCT-116 colon, with HCT-15 colon, in the test with IGROV1 ovarian and in the test with PC-3 prostate was greater than 100 µM in each case. Besides, the TGI in the test with SF-268 CNS and in the test with SK-MEL-5 melanoma was greater than 100 µM throughout.
For `CCCCCC(C)SC1(C(=O)OC)CC(OC(C)=O)C(NC(C)=O)C([C@H](OC(C)=O)[C@@H](COC(C)=O)OC(C)=O)O1` (stereo not given in full), the TGI with ACHN renal, in the test with HCT-116 colon, in the test on HCT-15 colon, with IGROV1 ovarian, in the test on MCF7 breast and in the test with PC-3 prostate was greater than 100 µM in each case. The TGI in the test with SF-268 CNS, in the test with SF-295 CNS and in the test on SK-MEL-5 melanoma was greater than 100 µM in each case.
Turning to `Nc1ccccc1CC(O)C(=O)O` (stereo not given), the TGI in the test with ACHN renal, in the test on EKVX NSCLC, in the test with HCT-116 colon, in the test on HCT-15 colon, in the test on MCF7 breast and with PC-3 prostate was greater than 100 µM in each case. Moreover, the TGI in the test with SF-268 CNS, in the test with SF-295 CNS and in the test on SK-MEL-5 melanoma was greater than 100 µM each time.
